Holding throughout (assay type): physicochemical
Data set [1] in a line: Solubility Test Method in fluorinated fluids. The note with it: for solubility: organic solvent or mixture, thermodynamic from solid. On the procedure: For compounds 4 and 5, a known amount of material was weighed into a scintillation vial and 1 mL of each solvent was volumetrically added followed by sonication for dissolution. For samples that completely dissolved, the formed solution was then added to additional aliquots of sample in an attempt to generate a saturated solution. […] In the case of compound 8, approximately 100 mg was suspended in 10 mL of each solvent and shaken for 1-2 h, after which the solution was filtered via syringe filter into a tared vial and the solution mass measured. The solvent was evaporated in vacuo and the mass of the remaining residue was recorded.
These samples were repeated using less mass of Molecule 5. […] It is believed that some molecules may have a tendency to gel at high concentrations (e.g., the molecule comprises more than 50 wt % of the composition).

The next data set in a line: UV/Vis Test Method. The note with it: diluted into HFE 7200, 1 cm quartz cuvette. On the procedure:
Unless otherwise mentioned, the sample was diluted into HFE 7200 and spectra were collected on an Ultraviolet-Visible (UV/Vis) spectrometer (available under the trade designation “CARY 8454” from Agilent Technologies, Inc, Santa Clara, CA) using 1 cm quartz cuvettes.

The nature of the next data set: Fluorescence Test Method. The note with it: in CHCl3 instead of HFE 7200. On the procedure:
Unless otherwise mentioned, the sample was diluted into HFE 7200 and spectra were collected on a fluorimeter (available under the trade designation “FLUOROLOG 3-21 HR” from Jobin-Yvon Horiba, Inc., Edison, NJ) in a 1 cm fluorescence cuvette under the following experimental parameters: • Orientation: 10 degree (front face) • EX Slit Width: 1.0 nm • EM Slit Width: 1.0 nm • EX Data Interval: 5 nm • EM Data Interval: 5 nm • EX Wavelength range: 300 nm to 500 nm • EM Wavelength range: 400 nm to 650 nm

Values after ≈ are worked out from the molar mass of the structure shown.

`Cc1cc(=O)oc2cc(OCCCCCN(C)S(=O)(=O)C(F)(F)C(F)(F)C(F)(F)C(F)(F)F)ccc12` [Molecule 8]: in data set [1] (solvent HFE 7200), the solubility (as a rule, the concentration that dissolves in the medium under given conditions) came to 1570 µg/mL (≈ 2.82 mM) and the “wt % of solution” value is 0.1 wt %. Moreover, in data set [1] (solvent PF-5052), the solubility turned out to be 4070 µg/mL (≈ 7.3 mM) and the “wt % of solution” value stood at 0.2 wt %. Moreover, in data set [1] (solvent FC-70), the “Solubility (g/mL)” value was “Insoluble” and the “wt % of solution” value worked out at 0 wt %. Further, the “λmax from the UV/Vis test” value in the data set “UV/Vis Test Method” is listed as 320 nm. Further, in the data set “Fluorescence Test Method”, the “fluorescence emission λmax” value is recorded as 380 nm and the “fluorescence excitation λ” value turned out to be 320 nm.
